pIC50: −log10 of the molar value.
What was measured:
human CB1 receptor = target: T1, human CB1 receptor (Homo sapiens, UniProt P21554); experiment: Human CB1 receptor binding inhibition test; conditions: CHO-DHFR(−) cells stably expressing human CB1 receptor, same manner as Experimental Example 1
T1 construct: expressed in transfected cells
Protocol: Human CB1 Receptor Binding Inhibition Test
The CHO-DHFR(−) cells capable of stably expressing a CB1 receptor were prepared in the same manner as in Experimental Example 1. The binding test to the human CB1 receptor was performed to obtain 50% inhibitory concentration (IC50 value) of a test compound.

human CB2 receptor = target: T2, human CB2 receptor (Homo sapiens, UniProt P34972); experiment: Human CB2 receptor binding inhibition test ([3H]CP-55,940, CHO membrane fractions); conditions: [3H]CP-55,940, membrane fractions of CHO cells stably expressing human CB2 receptor, 25° C., 2 hours; read-out: CB2 IC50 (Inhibition of binding to human CB2 receptor)
T2 construct: expressed in transfected cells
T2 sequence (P34972 whole entry): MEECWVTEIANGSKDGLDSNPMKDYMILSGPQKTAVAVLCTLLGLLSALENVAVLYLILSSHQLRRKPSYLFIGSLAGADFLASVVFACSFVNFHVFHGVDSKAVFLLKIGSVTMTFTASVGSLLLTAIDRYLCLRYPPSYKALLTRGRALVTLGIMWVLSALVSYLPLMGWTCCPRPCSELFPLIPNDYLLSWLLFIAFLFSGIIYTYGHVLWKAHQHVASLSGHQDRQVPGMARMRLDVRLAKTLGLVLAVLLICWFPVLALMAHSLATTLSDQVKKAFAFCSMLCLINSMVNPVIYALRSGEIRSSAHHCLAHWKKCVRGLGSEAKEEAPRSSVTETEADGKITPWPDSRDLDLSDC
In short: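 Membranes from CHO-DHFR(−) cells stably expressing human CB2 used for [3H]CP-55,940 binding; filter-bound radioactivity counted by scintillation after washes with 0.1% BSA buffer. Nonspecific binding defined with 2.0 μM CP-55,940; IC50 for inhibition of specific binding.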

T1 sequence (P21554 whole entry): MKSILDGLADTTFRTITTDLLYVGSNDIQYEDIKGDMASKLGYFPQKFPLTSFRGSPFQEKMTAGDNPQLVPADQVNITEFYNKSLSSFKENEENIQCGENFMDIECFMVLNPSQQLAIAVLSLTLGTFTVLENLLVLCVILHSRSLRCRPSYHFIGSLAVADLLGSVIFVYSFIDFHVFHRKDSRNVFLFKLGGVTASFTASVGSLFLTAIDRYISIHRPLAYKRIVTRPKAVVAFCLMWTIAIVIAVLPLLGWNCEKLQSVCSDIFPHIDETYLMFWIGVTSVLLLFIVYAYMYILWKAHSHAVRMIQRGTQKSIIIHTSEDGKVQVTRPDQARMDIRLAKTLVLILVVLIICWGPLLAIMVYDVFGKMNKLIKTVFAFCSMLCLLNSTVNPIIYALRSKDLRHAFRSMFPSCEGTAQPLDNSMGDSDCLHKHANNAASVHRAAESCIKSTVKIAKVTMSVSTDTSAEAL

COc1cc(Cl)ccc1C(=O)/N=c1\sc(C(C)(C)C)c(C)n1CC1CC1 [compound 264]
pIC50 (human CB1 receptor): 6.74
pIC50 (human CB2 receptor): 9.00
melting point: 163 to 165 °C

Cc1c(C(C)(C)C)s/c(=N\C(=O)c2c(Cl)cncc2Cl)n1CC1CC1 [compound 308]
pIC50 (human CB1 receptor): 6.47
pIC50 (human CB2 receptor): 8.44
melting point: 260 to 261 °C

Cc1c(C(C)(C)C)s/c(=N\C(=O)c2nc(Cl)ccc2Cl)n1CC1CC1 [compound 306]
pIC50 (human CB1 receptor): 7.17
pIC50 (human CB2 receptor): 9.30
melting point: 143 to 145 °C

Cc1c(C(C)(C)C)s/c(=N\C(=O)c2cc(Cl)cnc2Cl)n1CC1CC1 [compound 309]
pIC50 (human CB1 receptor): 6.39
pIC50 (human CB2 receptor): 8.68
melting point: 113 to 134 °C

Cc1cccc(C(=O)/N=c2\sc(C(C)(C)C)c(C)n2CC2CC2)c1C [compound 215]
pIC50 (human CB1 receptor): 7.21
pIC50 (human CB2 receptor): 8.96
melting point: 97 to 98 °C

Cc1c(C(C)(C)C)s/c(=N\C(=O)c2ccnc3ccccc23)n1CC1CC1 [compound 323]
pIC50 (human CB1 receptor): 6.44
pIC50 (human CB2 receptor): 8.21
melting point: 124 to 126 °C

Cc1c(Br)cccc1C(=O)/N=c1\sc(C(C)(C)C)c(C)n1CC1CC1 [compound 245]
pIC50 (human CB1 receptor): 7.49
pIC50 (human CB2 receptor): 9.10
melting point: 89 to 90 °C

COc1cccc(F)c1C(=O)/N=c1\sc(C(C)(C)C)c(C)n1CC1CC1 [compound 263]
pIC50 (human CB1 receptor): 7.25
pIC50 (human CB2 receptor): 9.22
melting point: 119 to 121 °C

CCOCCn1/c(=N/C(=O)c2cccc(C)c2Br)cc(C(C)(C)C)n1C [compound 487]
pIC50 (human CB1 receptor): 6.61
pIC50 (human CB2 receptor): 8.00
melting point: 166 to 167 °C

Cc1c(C(C)(C)C)s/c(=N\C(=O)c2cc(Cl)ccc2Cl)n1CC1CC1 [compound 232]
pIC50 (human CB1 receptor): 6.68
pIC50 (human CB2 receptor): 9.30
melting point: 129 to 131 °C

COCCn1c(C)c(C)s/c1=N\C(=O)c1cccc(C(F)(F)F)c1F [compound 104]
pIC50 (human CB1 receptor): 6.49
pIC50 (human CB2 receptor): 8.77
melting point: 182 to 183 °C

Cc1c(C(C)(C)C)s/c(=N\C(=O)c2c(F)ccc(C(F)(F)F)c2F)n1CC1CC1 [compound 288]
pIC50 (human CB1 receptor): 7.31
pIC50 (human CB2 receptor): 9.70
melting point: 109 to 111 °C

Cc1c(C(C)(C)C)s/c(=N\C(=O)c2ccccc2C(C)C)n1CC1CC1 [compound 182]
pIC50 (human CB1 receptor): 7.66
pIC50 (human CB2 receptor): 9.52
melting point: 168 to 169 °C

Cc1c(C(C)(C)C)s/c(=N\C(=O)c2cccc(C(F)(F)F)c2Cl)n1CC1CC1 [compound 258]
pIC50 (human CB1 receptor): 7.72
pIC50 (human CB2 receptor): 9.22
melting point: 93 to 94 °C

Cc1c(C(C)(C)C)s/c(=N\C(=O)c2c(F)cccc2C(F)(F)F)n1CC1CC1 [compound 256]
pIC50 (human CB1 receptor): 6.99
pIC50 (human CB2 receptor): 8.96
melting point: 128 to 130 °C

Cc1c(C(C)(C)C)s/c(=N\C(=O)C2CCCCC2)n1CC1CC1 [compound 332]
pIC50 (human CB1 receptor): 7.01
pIC50 (human CB2 receptor): 8.48
melting point: 141 to 142 °C

COc1ccc(Cl)cc1C(=O)/N=c1\sc(C(C)(C)C)c(C)n1CC1CC1 [compound 265]
pIC50 (human CB1 receptor): 7.00
pIC50 (human CB2 receptor): 9.00
melting point: 98 to 100 °C

COc1cccc(C(=O)/N=c2\sc(C(C)(C)C)c(C)n2CC2CC2)c1OC [compound 235]
pIC50 (human CB1 receptor): 6.50
pIC50 (human CB2 receptor): 8.47
melting point: 93 to 94 °C

Cc1c(C(C)(C)C)s/c(=N\C(=O)c2cccnc2Cl)n1CC1CC1 [compound 301]
pIC50 (human CB1 receptor): 6.72
pIC50 (human CB2 receptor): 8.70
melting point: 124 to 125 °C

Cc1c(C(C)(C)C)s/c(=N\C(=O)c2ccc(F)cc2Br)n1CC1CC1 [compound 229]
pIC50 (human CB1 receptor): 6.58
pIC50 (human CB2 receptor): 9.00
melting point: 126 to 128 °C

Cc1c(F)cccc1C(=O)/N=c1\sc(C(C)(C)C)c(C)n1CC1CC1 [compound 240]
pIC50 (human CB1 receptor): 6.77
pIC50 (human CB2 receptor): 8.47
melting point: 94 to 96 °C

CCOCCn1/c(=N/C(=O)c2cccc(Cl)c2Cl)cc(C(C)(C)C)n1C [compound 486]
pIC50 (human CB1 receptor): 6.68
pIC50 (human CB2 receptor): 8.29
melting point: 145 to 146 °C

Cc1c(Cl)cccc1C(=O)/N=c1\sc(C(C)(C)C)c(C)n1CC1CC1 [compound 243]
pIC50 (human CB1 receptor): 7.14
pIC50 (human CB2 receptor): 9.40
melting point: 88 to 90 °C

COc1ccc(F)cc1C(=O)/N=c1\sc(C(C)(C)C)c(C)n1CC1CC1 [compound 262]
pIC50 (human CB1 receptor): 6.36
pIC50 (human CB2 receptor): 9.22
melting point: 87 to 89 °C

Cc1c(C(C)(C)C)s/c(=N\C(=O)c2cc(F)ccc2Br)n1CC1CC1 [compound 228]
pIC50 (human CB1 receptor): 6.64
pIC50 (human CB2 receptor): 9.30
melting point: 92 to 94 °C

Cc1ccc(C(=O)/N=c2\sc(C(C)(C)C)c(C)n2CC2CC2)c(Br)c1 [compound 246]
pIC50 (human CB1 receptor): 6.50
pIC50 (human CB2 receptor): 9.10
melting point: 82 to 84 °C

CCOc1ccc(C(=O)/N=c2\sc(C(C)(C)C)c(C)n2CC2CC2)c(OCC)c1 [compound 237]
pIC50 (human CB1 receptor): 6.70
pIC50 (human CB2 receptor): 7.88
melting point: 116 to 118 °C

Cc1c(C(C)(C)C)s/c(=N\C(=O)c2ncccc2Br)n1CC1CC1 [compound 304]
pIC50 (human CB1 receptor): 6.43
pIC50 (human CB2 receptor): 8.64
melting point: 141 to 142 °C

Cc1c(C(C)(C)C)s/c(=N\C(=O)c2c(C(F)(F)F)ccc(Cl)c2F)n1CC1CC1 [compound 289]
pIC50 (human CB1 receptor): 6.87
pIC50 (human CB2 receptor): 9.30
melting point: 182 to 183 °C

CC(C)OCCn1/c(=N/C(=O)c2cccc(Cl)c2Cl)cc(C(C)(C)C)n1C [compound 492]
pIC50 (human CB1 receptor): 6.58
pIC50 (human CB2 receptor): 8.30

Cc1c(C(C)(C)C)s/c(=N\C(=O)c2ccccc2Cl)n1CC1CC1 [compound 186]
pIC50 (human CB1 receptor): 6.57
pIC50 (human CB2 receptor): 8.77

CCc1ccccc1C(=O)/N=c1\sc(C(C)(C)C)c(C)n1CC1CC1 [compound 181]
pIC50 (human CB1 receptor): 6.94
pIC50 (human CB2 receptor): 9.10
melting point: 120 to 122 °C

Cc1c(C(C)(C)C)s/c(=N\C(=O)c2ccccc2Br)n1CC1CC1 [compound 189]
pIC50 (human CB1 receptor): 6.67
pIC50 (human CB2 receptor): 8.82

CCOCCn1/c(=N/C(=O)c2cccc(Cl)c2C)cc(C(C)(C)C)n1C [compound 490]
pIC50 (human CB1 receptor): 6.54
pIC50 (human CB2 receptor): 8.00
melting point: 127 to 128 °C

Cc1ccnc(C)c1C(=O)/N=c1\sc(C(C)(C)C)c(C)n1CC1CC1 [compound 299]
pIC50 (human CB1 receptor): 7.55
pIC50 (human CB2 receptor): 8.55
melting point: 156 to 157 °C

Cc1c(C(C)(C)C)s/c(=N\C(=O)c2ccccc2C(F)(F)F)n1CC1CC1 [compound 183]
pIC50 (human CB1 receptor): 6.86
pIC50 (human CB2 receptor): 9.30
melting point: 90 to 91 °C

CCOCCn1c(C)c(C(C)C)s/c1=N\C(=O)c1cccc(C(F)(F)F)c1F [compound 115]
pIC50 (human CB1 receptor): 7.60
pIC50 (human CB2 receptor): 9.30
melting point: 96 to 97 °C

CCOCCn1/c(=N/C(=O)c2cccc(Br)c2C)cc(C(C)(C)C)n1C [compound 491]
pIC50 (human CB1 receptor): 6.76
pIC50 (human CB2 receptor): 8.03
melting point: 125 to 126 °C

COc1ccc(C(=O)/N=c2\sc(C(C)(C)C)c(C)n2CC2CC2)c(OC)c1OC [compound 286]
pIC50 (human CB1 receptor): 6.36
pIC50 (human CB2 receptor): 7.90
melting point: 88 to 89 °C

COc1ccc(C(=O)/N=c2\sc(C(C)(C)C)c(C)n2CC2CC2)c(C)c1 [compound 261]
pIC50 (human CB1 receptor): 6.43
pIC50 (human CB2 receptor): 9.00
melting point: 95 to 96 °C

CCOCCn1c(C)c(C)s/c1=N\C(=O)c1cccc(C(F)(F)F)c1F [compound 107]
pIC50 (human CB1 receptor): 7.74
pIC50 (human CB2 receptor): 9.30
melting point: 147 to 148 °C

Reference: patent US20080312435A1, “Imine Compound” (TAISHO PHARMACEUTICAL CO., LTD., priority 2004, published 2008)
